Results on 17 compounds are retold here after patent US20230295201A1 (Gilead Sciences, Inc., priority 2020, published 2023).

Where two headings read alike, the source gives them in different places.

Format in all cases: cell-based
Assay [1] deals with RSV strain A2. As to the kind of experiment: RSV HEp-2 EC50 (infectious cytopathic cell protection assay). The settings on record: HEp-2 cells, RSV A2, 4 days, read-out: RSV HEp-2 EC50. In short, it runs like this: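 HEp-2 cells mixed with titered RSV A2 at 50,000 cells/ml were added to plates holding 3-fold serial compound dilutions in DMSO, then incubated 4 days at 37° C. Cytoprotection was read as cell viability by CellTiter-Glo luminescence and converted to percent inhibition against 0% and 100% inhibition controls.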
(Cytopathic effects are the visible damage that an infection or toxin causes in cultured cells.)

Assay [2] concerns RSV A2. As to the kind of experiment: RSV NHBE EC50 (RSV A2 antiviral assay in normal human bronchial epithelial cells). Conditions: NHBE cells, RSV A2, 4 days, read-out: RSV NHBE EC50.
Assay [3] deals with HRV16. As to the kind of experiment: HRV16 HELA EC50 (cytopathic effect in H1-HeLa cells). In short, it runs like this: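 H1-HeLa cells seeded one day before, given 3-fold serial compound dilutions in triplicate just prior to infection with pre-titrated virus. Incubated 96 h at 33 °C/5% CO2; protection from cytopathic effect read as viability by CellTiter-Glo luminescence, normalised to infected untreated (0%) and uninfected (100%) controls.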

Assay [4] concerns DENV2 replicon. Briefly: DENV-2 Huh-7 Rep EC50 (replicon luminescence). The settings on record: read-out: DENV-2 Huh-7 Rep EC50. In short, it runs like this:
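Huh-7 cells carrying a DENV2 replicon, 5,000 cells/well, were incubated with dosed compounds for 48 h at 37° C. EnduRen live-cell substrate was added 1.5 h before luminescence reading. EC50 came from dose-response against DMSO-only wells.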
On the technique in general: Replicon systems follow genome replication, usually without infectious particles.

Where [5] appears, read: human respiratory syncytial virus, HEp-2, 96 h.
Setting [6] is: human respiratory syncytial virus, NHBE, 96 h.
Setting [7] is: 96 h, H1-HeLa cells, 33° C., read-out: HRV16 HELA EC50.
The mark [8] stands for this setting: Dengue virus, DENV2, Huh-7, 48 h, Huh-7 replicon cells, 48 hours.
Where [9] appears, read: Dengue virus, DENV2, Huh-7, 48 h.
[10] abbreviates: human respiratory syncytial virus, 96 h.
Where [11] appears, read: H1-HeLa cells, 96 h, 33° C.; read-out: HRV16 HELA EC50.

As usually defined, the EC50 is the concentration that produces a half-maximal response. Turning to `C[C@@H](NP(=O)(OC[C@@]1(C#N)O[C@@H](c2ccc3c(N)ncnn23)[C@H](O)[C@@H]1O)Oc1ccccc1)C(=O)O[C@@H]1CCN(C(=O)OC(C)(C)C)C1` (stereo partly drawn) [Example 140, (3R)-tert-butyl 3-(((2R)-2-(((((2R,3S,4R,5S)-5-(4-aminopyrrolo[2,1-f][1,2,4]triazin-7-yl)-2-cyano-3,4-dihydroxytetrahydrofuran-2-yl)methoxy)(phenoxy)phosphoryl)amino)propanoyl)oxy)pyrrolidine-1-carboxylate], the EC50 was 8.89 µM in assay [1] (setting [5]), above 5 µM in assay [2] (setting [6]), 23.3 µM in assay [3] (setting [7]) and above 50 µM in assay [4] (setting [8]).

On to `N#C[C@]1(COP(=O)(NCC(=O)OC2CCCC2)Oc2ccccc2)O[C@@H](c2ccc3c(N)ncnn23)[C@H](O)[C@@H]1O` (mixture of isomers) [Example 112, cyclopentyl 2-(((((2R,3S,4R,5S)-5-(4-aminopyrrolo[2,1-f][1,2,4]triazin-7-yl)-2-cyano-3,4-dihydroxytetrahydrofuran-2-yl)methoxy)(phenoxy)phosphoryl)amino)acetate], for which the EC50 is 1.41 µM in assay [1] (setting [5]), 0.464 µM in assay [2] (setting [6]), 3.69 µM in assay [3] (setting [7]) and above 50 µM in assay [4] (setting [8]).

Turning to `C[C@H](NP(=O)(OC[C@@]1(C#N)O[C@@H](c2ccc3c(N)ncnn23)[C@H](O)[C@@H]1O)Oc1ccccc1)C(=O)OC1CCOCC1` (single isomer, unassigned) [Example 56], the EC50 was 4.17 µM in assay [1], 2.24 µM in assay [2] (setting [6]), 7.96 µM in assay [3] (setting [7]) and above 50 µM in assay [4] (setting [8]).

As for `CC(C)(C)C(=O)OCCNP(=O)(NCCOC(=O)C(C)(C)C)OC[C@@]1(C#N)O[C@@H](c2ccc3c(N)ncnn23)[C@H](O)[C@@H]1O` [Example 208], the half-maximal effective concentration (EC50) in assay [1] (setting [5]) was above 32.8 µM; in assay [2] (setting [6]) it was above 4.22 µM; in assay [3] (setting [7]), above 50 µM; in assay [4] (setting [9]) it was above 50 µM.

With `C[C@H](NP(=O)(OC[C@@]1(C#N)O[C@@H](c2ccc3c(N)ncnn23)[C@H](O)[C@@H]1O)Oc1ccccc1)C(=O)OC1CCN(C)CC1` (some centres unmarked) [Example 150], the concentration giving a half-maximal response (EC50) in assay [1] (setting [5]) is 4.16 µM; in assay [2] (human respiratory syncytial virus, NHBE, in Homo sapiens, 96 h), above 5 µM; in assay [3] (setting [7]), 49.9 µM; in assay [4] (setting [8]), above 100 µM.

As for `CC(C)OC(=O)[C@H](C)NP(=O)(OCCS(C)(=O)=O)OC[C@@]1(C#N)O[C@@H](c2ccc3c(N)ncnn23)[C@H](O)[C@@H]1O` (stereo partly drawn) [Example 42, isopropyl ((((2R,3S,4R,5S)-5-(4-aminopyrrolo[2,1-f][1,2,4]triazin-7-yl)-2-cyano-3,4-dihydroxytetrahydrofuran-2-yl)methoxy)(2-(methylsulfonyl)ethoxy)phosphoryl)-L-alaninate], the concentration giving a half-maximal response (EC50) in assay [1] (setting [10]) was 25.4 µM; in assay [2] (setting [10]) it was at least 5 µM; in assay [3] (setting [11]), above 50 µM; in assay [4] (setting [9]), 39.2 µM.

Consider `C[C@H](NP(=O)(OC[C@@]1(C#N)O[C@@H](c2ccc3c(N)ncnn23)[C@H](O)[C@@H]1O)Oc1ccccc1)C(=O)O[C@@H]1CCNC1` (mixture of isomers) [Example 137, (2S)—(R)-pyrrolidin-3-yl 2-(((((2R,3S,4R,5S)-5-(4-aminopyrrolo[2,1-f][1,2,4]triazin-7-yl)-2-cyano-3,4-dihydroxytetrahydrofuran-2-yl)methoxy)(phenoxy)phosphoryl)amino)propanoate], for which the EC50 is 3.69 µM in assay [1] (setting [5]), above 5 µM in assay [2] (setting [6]), 27 µM in assay [3] (setting [7]) and above 50 µM in assay [4] (setting [8]).

For `COC(=O)[C@H](C)NP(=O)(OC[C@@]1(C#N)O[C@@H](c2ccc3c(N)ncnn23)[C@H](O)[C@@H]1O)Oc1ccccc1` (stereo partly drawn) [Example 39, methyl ((((2R,3S,4R,5S)-5-(4-aminopyrrolo[2,1-f][1,2,4]triazin-7-yl)-2-cyano-3,4-dihydroxytetrahydrofuran-2-yl)methoxy)(phenoxy)phosphoryl)-L-alaninate], the EC50 in assay [1] (setting [5]) is 0.166 µM; in assay [2] (setting [6]) it was 0.569 µM; in assay [3] (setting [7]), 1.08 µM; in assay [4] (setting [8]), above 50 µM.

Take `C[C@H](NP(=O)(OC[C@@]1(C#N)O[C@@H](c2ccc3c(N)ncnn23)[C@H](O)[C@@H]1O)Oc1ccccc1)C(=O)OC[C@H]1CC[C@H](C(F)(F)F)CC1` (mixture of isomers) [Example 26, ((1r,4S)-4-(trifluoromethyl)cyclohexyl)methyl ((((2R,3S,4R,5S)-5-(4-aminopyrrolo[2,1-f][1,2,4]triazin-7-yl)-2-cyano-3,4-dihydroxytetrahydrofuran-2-yl)methoxy)(phenoxy)phosphoryl)alaninate]: the half-maximal effective concentration (EC50) was 0.334 µM in assay [1] (setting [5]), 0.025 µM in assay [2] (setting [6]), 0.669 µM in assay [3] (setting [7]) and 44.3 µM in assay [4] (setting [8]).

Regarding `C[C@H](NP(=O)(OC[C@@]1(C#N)O[C@@H](c2ccc3c(N)ncnn23)[C@H](O)[C@@H]1O)Oc1ccccc1)C(=O)OC1CCOCC1` (single isomer, unassigned) [Example 57], the concentration for a half-maximal effect (EC50) was 1.49 µM in assay [1]; above 4.18 µM in assay [2]; 5.48 µM in assay [3] (setting [11]); above 50 µM in assay [4] (Huh-7 replicon cells, 48 hours).

`CC(C)[C@H](NC(=O)OC(C)(C)C)C(=O)OCCNP(=O)(OC[C@@]1(C#N)O[C@@H](c2ccc3c(N)ncnn23)[C@H](O)[C@@H]1O)Oc1ccccc1` (stereo partly drawn) [Example 139, (2S)-2-(((((2R,3S,4R,5S)-5-(4-aminopyrrolo[2,1-f][1,2,4]triazin-7-yl)-2-cyano-3,4-dihydroxytetrahydrofuran-2-yl)methoxy)(phenoxy)phosphoryl)amino)ethyl 2-((tert-butoxycarbonyl)amino)-3-methylbutanoate]: the EC50 is 6.43 µM in assay [1] (setting [5]), 0.103 µM in assay [2] (setting [6]), 28.3 µM in assay [3] (setting [7]) and above 50 µM in assay [4] (setting [8]).

As for `CCCCCOC(=O)C[C@H](N[P@](=O)(OC[C@@]1(C#N)O[C@@H](c2ccc3c(N)ncnn23)[C@H](O)[C@@H]1O)Oc1ccccc1)C(=O)OCCCCC` [Example 217], the EC50 in assay [1] was 1.01 µM; in assay [2], above 3.51 µM; in assay [3] (setting [11]) it was 4.66 µM; in assay [4] (Huh-7 replicon cells, 48 hours), 38 µM.

With `CC(C)[C@H](NP(=O)(OC[C@@]1(C#N)O[C@@H](c2ccc3c(N)ncnn23)[C@H](O)[C@@H]1O)Oc1ccccc1)C(=O)OC1CCCCC1` (stereo partly drawn) [Example 98, cyclohexyl ((((2R,3S,4R,5S)-5-(4-aminopyrrolo[2,1-f][1,2,4]triazin-7-yl)-2-cyano-3,4-dihydroxytetrahydrofuran-2-yl)methoxy)(phenoxy)phosphoryl)-L-valinate], the EC50 in assay [1] (setting [5]) was above 50 µM; in assay [2] (setting [6]), above 5 µM; in assay [3] (setting [7]) it was above 50 µM; in assay [4] (setting [8]) it was above 50 µM.

As for `CCN1CCC(OC(=O)[C@H](C)NP(=O)(OC[C@@]2(C#N)O[C@@H](c3ccc4c(N)ncnn34)[C@H](O)[C@@H]2O)Oc2ccccc2)C(F)(F)C1` (stereo partly drawn) [Example 32, 1-ethyl-3,3-difluoropiperidin-4-yl ((((2R,3S,4R,5S)-5-(4-aminopyrrolo[2,1-f][1,2,4]triazin-7-yl)-2-cyano-3,4-dihydroxytetrahydrofuran-2-yl)methoxy)(phenoxy)phosphoryl)-L-alaninate], the EC50 in assay [1] (setting [5]) was 3.44 µM; in assay [2] (setting [6]), above 3.12 µM; in assay [3] (setting [7]), 9.95 µM; in assay [4] (setting [8]) it was above 100 µM.

As to `COC(=O)[C@H](C)NP(=O)(N[C@@H](C)C(=O)OC)OC[C@@]1(C#N)O[C@@H](c2ccc3c(N)ncnn23)[C@H](O)[C@@H]1O` [Example 38], the concentration giving a half-maximal response (EC50) in assay [1] (setting [10]) is 3.51 µM; in assay [2] (setting [10]) it was 3.98 µM; in assay [3] (setting [11]), 20.9 µM; in assay [4] (setting [9]), above 50 µM.

For `CCCCCCCCCCCCCCCCOCCCNP(=O)(OC[C@@]1(C#N)O[C@@H](c2ccc3c(N)ncnn23)[C@H](O)[C@@H]1O)Oc1ccccc1` (stereo partly drawn) [Example 187, ((2R,3S,4R,5S)-5-(4-aminopyrrolo[2,1-f][1,2,4]triazin-7-yl)-2-cyano-3,4-dihydroxytetrahydrofuran-2-yl)methyl phenyl (3-(hexadecyloxy)propyl)phosphoramidate], the EC50 in assay [1] (setting [5]) is 1.49 µM; in assay [2] (setting [6]), above 5 µM; in assay [3] (setting [7]) it was 20.6 µM; in assay [4] (setting [8]) it was 9.35 µM.

With `N#C[C@]1(COP(=O)(NC2(C(=O)OC3CCCCC3)CCC2)Oc2ccccc2)O[C@@H](c2ccc3c(N)ncnn23)[C@H](O)[C@@H]1O` (stereo partly drawn) [Example 107, cyclohexyl 1-(((((2R,3S,4R,5S)-5-(4-aminopyrrolo[2,1-f][1,2,4]triazin-7-yl)-2-cyano-3,4-dihydroxytetrahydrofuran-2-yl)methoxy)(phenoxy)phosphoryl)amino)cyclobutanecarboxylate], the EC50 in assay [1] (setting [5]) is above 14.2 µM; in assay [2] (setting [6]), above 2.89 µM; in assay [3] (setting [7]) it was above 35.7 µM; in assay [4] (setting [8]), above 50 µM.
